Test results: paper PMC9301920, “Physiologically Based Toxicokinetic Modeling of Bisphenols in Zebrafish (Danio rerio) Accounting for Variations in Metabolic Rates, Brain Distribution, and Liver Accumulation” (Environmental Science & Technology, 2022)
pEC50: −log10 of the molar value. Where two headings read alike, the source gives them in different places.

Legend:
[1] = In vivo zebrafish kinetics of BPZ (water exposure, organ concentrations by LC-MS/MS); parameters: species or system zebrafish (Danio rerio); conditions: female, zebrafish; for concentration at 12 h / concentration at 483 h / concentration at 486 h / concentration at 492 h / concentration at 504 h / concentration at 576 h / concentration at 6 h / concentration at 24 h / concentration at 48 h / concentration at 72 h / concentration at 336 h / concentration at 411 h / concentration at 480 h: female zebrafish; for concentration at 483 h: 483 h (depuration phase); for concentration at 486 h: 486 h (depuration phase); for concentration at 492 h: 492 h (depuration phase); for concentration at 504 h: 504 h (depuration phase); for concentration at 576 h: 576 h (depuration phase); for concentration at 480 h: 480 h (one outlier fish removed); for Cmax / half-life: 17 μg/L in water, observed
Method: (§1) At sampling, adult fish were euthanized by immersion in a sodium bicarbonate-buffered tricaine methanesulfonate solution (MS222: 500 mg/L) and decapitated thereafter. […] Additionally, three whole fish were sampled at timepoints of 6, 12, and 24 h of the exposure phase. Water from the fish tank was sampled at 0, 12, 24, 48, 72, 168, 336, 411, and 480 h after exposure start as well as at 0, 12, 24, and 96 h after the start of depuration. Control fish and tank water were sampled before the start of exposure. All samples were immediately stored at −20 °C until further analysis. […]
(§2) 1223. In Vivo Zebrafish Kinetics of BPZ
(§3) 123Adult zebrafish were purchased from a local supplier in Uppsala, Sweden, and acclimatized for
(§4) 1246 weeks before the start of the study. The zebrafish were kept in 26 °C charcoal filtered tap
(§5) 173NH 4OH and 4 ml acetonitrile/tetrahydofuran (1:1) mixture. The 4 ml 2% formic acid in
(§6) 174methanol eluates were evaporated until dry. Remaining residues were then reconstituted in 50
(§7) 175µl water and methanol 50/50 v/v mixture. Extracts were stored at 4°C until measurement.
(§8) 176The extracts were measured on a LC (ExionLC, Sciex) coupled with a Turbo V Ion source (ESI)
(§9) 178Sciex). Separation of compound was done on a phenyl-hexyl column (Kinetex, 100 x 2.1 mm,
(§10) 1791.7 µm, Phenomenex) set at 45°C using a gradient of 0.2 mM NH 4F and 0.2 mM NH4F in
(§11) 180acetonitrile. The applied MRM transitions and MS/MS settings are described in Tables S5-S8.
(§12) LC column Kinetex Phenyl-hexyl column, 1.7 µm, 2,1 mm X 100
(§13) Delay column Isolator column, 2.1 mm X 100 mm (Waters)
(§14) Gradient 0.2 mM NH4F 0.2 mM NH4F in
(§15) 194limit of detection (LOD). The LOD is defined as three times the standard deviation of the blank
(§16) 195plus the average blank value. The limit of quantification (LOQ) is defined as 3.3 * LOD value
(§17) Blank pg/extract Recovery % Repeatability %
(§18) Detection and report limits (calculated on based of average sample intake)

[2] = system: female zebrafish; assay: as above; parameters: species or system zebrafish (Danio rerio); conditions: 17 μg/L in water, observed
Method: as §1, §2, §3, §4, §5, §6, §7, §8, §9, §10, §11, §12, §13, §14, §15, §16, §17, §18

[3] = system: zebrafish; assay: PBTK parameter fitting (Nelder–Mead algorithm) to in vivo zebrafish data; parameters: species or system zebrafish (Danio rerio); conditions: fitted on brain BPZ concentrations of current study; used for all bisphenols
Text: Ovaries and eggs were assumed to receive the same blood flow. The equation for the egg compartment was described as follows using the diffusion-limited equation previously described by Thompson and Beard[51] [drawing 4] 4 where dAegg/dt represents the rate of change of bisphenol over time in the egg compartment, Agon and Aegg represent the amount of compound in the gonads and egg, respectively, Vgon and Vegg are the volumes of the gonads and eggs, respectively, and Pgon and Pegg are the partition coefficients of the gonads to blood and egg to gonads.
Parameter fitting was done in R using the modFit function in the FME package with the Nelder–Mead algorithm.[53]
279For fitting, the model was run using the exposure scenarios of each fitting data set.
280parameters were fixed as presented in Tables S10-S14 with exception of the parameter for
281which fitting was performed. The outcome evaluated by fitting algorithm was the concentration
282over time in the same tissue as the experimental data. Outcomes used for fitting to measured
283experimental data were: concentration in brain for brain-blood partition coefficient,
284concentration in liver for liver-blood partition coefficient, concentration in eggs for egg-gonad
285partition coefficient and whole-body metabolite concentration for Ke bile and KBG of metabolites.
286For the liver, brain and egg partitioning, the range was set between 0.01 and 500 and the Nelder-
287Mead algorithm was run with initial estimates at 1, 5, 10, 50 and 500 in order to assure a global
288minimum was found. The fitted values returning the lowest squared sum of residuals were used
The GI lumen to GI tract diffusion rate (K u)

[4] = molecular target: Estrogen receptor (ER); parameters: method as in Kitamura et al. 2005; conditions: ERE-luciferase reporter assay, MCF-7 cells; ref Kitamura et al. 2005; cited from earlier work
[5] = brain, other: exposure via tank water, 10 μg/L (nominal water concentration), read-out: Mean concentration, brain
[6] = brain, other: water exposure, 10 µg/L, read-out: Mean concentration, brain
[7] = carcass, other: exposure via tank water, 10 μg/L (nominal water concentration), read-out: Mean concentration, carcass
[8] = carcass, other: water exposure, 10 µg/L, read-out: Mean concentration, carcass
[9] = liver, other: exposure via tank water, 10 μg/L (nominal water concentration), read-out: Mean concentration, liver
[10] = liver, other: water exposure, 10 µg/L, read-out: Mean concentration, liver
[11] = ovary, other: exposure via tank water, 10 μg/L (nominal water concentration), read-out: Mean concentration, ovary
[12] = ovary, other: water exposure, 10 µg/L, read-out: Mean concentration, ovary
[13] = whole body (calculated), other: water exposure, 10 µg/L, read-out: Mean concentration, whole body (calculated)
[14] = whole body, other: exposure via tank water, 10 μg/L (nominal water concentration), read-out: Mean concentration, whole body (calculated)
[15] = whole body, other: water exposure, 10 µg/L, read-out: Mean concentration, whole body (measured)
[16] = 17 μg/L (water concentration), brain
[17] = 17 μg/L (water concentration), carcass

## Oc1ccc(C2(c3ccc(O)cc3)CCCCC2)cc1 [BPZ, bisphenol Z]
[1]; [5]
  concentration at 12 h: 82.1 ng/g
  concentration at 483 h: 14.4 ng/g
  concentration at 486 h: 7.9 ng/g
  concentration at 492 h: < 2.5 ng/g
  concentration at 504 h: < 3 ng/g
  concentration at 576 h: < 2.5 ng/g
[1]; [6]
  concentration at 6 h: 72 ng/g
  concentration at 24 h: 116 ng/g
  concentration at 48 h: 64.4 ng/g
  concentration at 72 h: 170 ng/g
  concentration at 336 h: 156 ng/g
  concentration at 411 h: 150 ng/g
  concentration at 480 h: 61.4 ng/g
[1]; [7]
  concentration at 480 h: 249 ng/g
  concentration at 483 h: 133 ng/g
  concentration at 486 h: 24.3 ng/g
  concentration at 492 h: 18.9 ng/g
  concentration at 504 h: 8.3 ng/g
  concentration at 576 h: 1.6 ng/g
[1]; [8]
  concentration at 6 h: 160 ng/g
  concentration at 12 h: 261 ng/g
  concentration at 24 h: 671 ng/g
  concentration at 48 h: 612 ng/g
  concentration at 72 h: 1120 ng/g
  concentration at 336 h: 348 ng/g
  concentration at 411 h: 557 ng/g
[1]; [9]
  concentration at 12 h: 57.5 ng/g
  concentration at 483 h: 252 ng/g
  concentration at 486 h: 71.3 ng/g
  concentration at 492 h: 11 ng/g
  concentration at 504 h: 12.4 ng/g
  concentration at 576 h: 4.4 ng/g
[1]; [10]
  concentration at 6 h: 182 ng/g
  concentration at 24 h: 364 ng/g
  concentration at 48 h: 225 ng/g
  concentration at 72 h: 536 ng/g
  concentration at 336 h: 146 ng/g
  concentration at 411 h: 232 ng/g
  concentration at 480 h: 1010 ng/g
[1]; [11]
  concentration at 12 h: 113 ng/g
  concentration at 480 h: 69.3 ng/g
  concentration at 483 h: 108 ng/g
  concentration at 486 h: 108 ng/g
  concentration at 492 h: 84.5 ng/g
  concentration at 504 h: 48.3 ng/g
  concentration at 576 h: 1 ng/g
[1]; [12]
  concentration at 6 h: 85.3 ng/g
  concentration at 24 h: 146 ng/g
  concentration at 48 h: 146 ng/g
  concentration at 72 h: 259 ng/g
  concentration at 336 h: 269 ng/g
  concentration at 411 h: 214 ng/g
[1]; [13]
  concentration at 12 h: 203 ng/g
  concentration at 24 h: 530 ng/g
  concentration at 48 h: 500 ng/g
  concentration at 72 h: 900 ng/g
  concentration at 336 h: 296 ng/g
  concentration at 411 h: 472 ng/g
[1]; [14]
  concentration at 6 h: 130 ng/g
  concentration at 480 h: 449 ng/g
  concentration at 483 h: 128 ng/g
  concentration at 486 h: 35.1 ng/g
  concentration at 492 h: 28.2 ng/g
  concentration at 504 h: 14.5 ng/g
  concentration at 576 h: 1.5 ng/g
[1]; whole body, other: exposure via tank water, 10 μg/L (nominal water concentration), read-out: Mean concentration, whole body (measured)
  concentration at 6 h: 215 ng/g
[1]; [15]
  concentration at 12 h: 336 ng/g
  concentration at 24 h: 435 ng/g
[1]; [16]
  Cmax: 170 ng/g
  half-life: 135 h
[1]; [17]
  Cmax: 1120 ng/g
  half-life: 119 h
[1]; liver
  Cmax: 1010 ng/g
  half-life: 210 h
[1]; ovaries
  Cmax: 270 ng/g
  half-life: 247 h
[1]; whole body
  Cmax: 900 ng/g
  half-life: 134 h
[2]; brain
  AUC: 2.85 µg/g/day
  BCF: 10.0
[2]; carcass
  AUC: 12.5 µg/g/day
  BCF: 65.9
[2]; liver
  AUC: 7.07 µg/g/day
  BCF: 59.2
[2]; ovaries
  AUC: 4.70 µg/g/day
  BCF: 15.8
[2]; whole body
  AUC: 10.6 µg/g/day
  BCF: 52.9
[3]
  Pbb (brain to blood partition coefficient): 0.42
[4]
  pEC50: 6.68
